The target in assay [1] is Integrase (Human immunodeficiency virus 1). The experiment in a line: Inhibitory concentration against human immuno deficiency virus type 1 integrase (3'-processing).
For assay [2] the target is unchanged. Kind of assay: Inhibitory concentration against human immuno deficiency virus type 1 integrase (Strand Transfer).

The structures appear in SMILES notation.

In general, IC50 refers to the concentration that inhibits the measured activity by half. A low value points to greater potency in that assay. Regarding `CCOc1cc(C=C2SC(=S)N(NC(=O)c3ccccc3O)C2=O)ccc1O` [N-{5-[1-(3-Ethoxy-4-hydroxy-phenyl)-meth-(Z)-ylidene]-4-oxo-2-thioxo-thiazolidin-3-yl}-2-hydroxy-benzamide], the IC50 in assay [1] came out at 70 µM; in assay [2], 38 µM.

For the molecule `CCc1ccc(/C=C2/SC(=S)N(CC(=O)Nc3cccc(C(=O)O)c3)C2=O)cc1` [3-(2-{5-[1-(4-Ethyl-phenyl)-meth-(Z)-ylidene]-4-oxo-2-thioxo-thiazolidin-3-yl}-acetylamino)-benzoic acid], the IC50 in assay [1] and in assay [2] was over 100 µM in each case.

On to `O=C(CCN1C(=O)/C(=C/c2ccc3c(c2)OCO3)SC1=S)Nc1ccc(C(=O)O)c(O)c1` [4-(3-{5-[1-Benzo[1,3]dioxol-5-yl-meth-(Z)-ylidene]-4-oxo-2-thioxo-thiazolidin-3-yl}-propionylamino)-2-hydroxy-benzoic acid], for which the IC50 came to 33 µM in assay [1] and 23 µM in assay [2].

`O=C(CCN1C(=O)/C(=C/c2cccs2)SC1=S)Nc1cccc(O)c1` [N-(3-Hydroxy-phenyl)-3-{4-oxo-5-[1-thiophen-2-yl-meth-(Z)-ylidene]-2-thioxo-thiazolidin-3-yl}-propionamide]: the IC50 in assay [1] and in assay [2] was over 100 µM each time.

As to `O=C(NN1C(=O)C(=Cc2ccc(Br)cc2)SC1=S)c1ccccc1O` [N-{5-[1-(4-Bromo-phenyl)-meth-(Z)-ylidene]-4-oxo-2-thioxo-thiazolidin-3-yl}-2-hydroxy-benzamide], the IC50 was 52 µM in assay [1] and 27 µM in assay [2].

For the molecule `Cc1ccc2nc(C(C#N)=Cc3ccc(-c4ccc(O)c(C(=O)O)c4)o3)[nH]c2c1` [5-{5-[(E)-2-Cyano-2-(5-methyl-1H-benzoimidazol-2-yl)-vinyl]-furan-2-yl}-2-hydroxy-benzoic acid], the IC50 in assay [1] came out at 16 µM; in assay [2], 8 µM.

With `COc1cc(/C=C2\SC(=S)N(CC(=O)Nc3cc(Cl)ccc3O)C2=O)cc(OC)c1OC` [N-(5-Chloro-2-hydroxy-phenyl)-2-{4-oxo-2-thioxo-5-[1-(3,4,5-trimethoxy-phenyl)-meth-(Z)-ylidene]-thiazolidin-3-yl}-acetamide], the IC50 in assay [1] is 32 µM; in assay [2] it was 17 µM.

In the case of `COc1ccc(/C=C2/SC(=S)N(CCC(=O)Nc3ccc(C(=O)O)c(O)c3)C2=O)cc1OC` [4-(3-{5-[1-(3,4-Dimethoxy-phenyl)-meth-(Z)-ylidene]-4-oxo-2-thioxo-thiazolidin-3-yl}-propionylamino)-2-hydroxy-benzoic acid], the IC50 in assay [1] amounted to 61 µM; in assay [2], 17 µM.

Take `COc1cc(/C=C2/SC(=S)N(CCC(=O)Nc3ccc(C(=O)O)cc3)C2=O)cc(OC)c1OC`: the 50% inhibitory concentration (IC50) in assay [1] is 97 µM; in assay [2] it was 85 µM.

With `O=C(CN1C(=O)/C(=C2\SC(=S)N(CC(=O)Nc3ccc(O)cc3)C2=O)SC1=S)Nc1ccc(O)cc1` [N-(4-Hydroxy-phenyl)-2-{(E)-3''-[(4-hydroxy-phenylcarbamoyl)-methyl]-4,4''-dioxo-2,2''-dithioxo-[5,5'']bithiazolidinyliden-3-yl}-acetamide], the figures for the IC50 in assay [1] and in assay [2] were 59 µM and 69 µM, respectively.

In the case of `O=C(CCN1C(=O)/C(=C/c2ccccc2Cl)SC1=S)Nc1ccc([N+](=O)[O-])cc1` [3-{5-[1-(2-Chloro-phenyl)-meth-(Z)-ylidene]-4-oxo-2-thioxo-thiazolidin-3-yl}-N-(4-nitro-phenyl)-propionamide], the IC50 in assay [1] and in assay [2] was over 100 µM in each case.

On to `O=C(CCN1C(=O)/C(=C/c2ccc3c(c2)OCO3)SC1=S)Nc1ccc2c(c1)OCO2` [N-Benzo[1,3]dioxol-5-yl-3-{5-[1-benzo[1,3]dioxol-5-yl-meth-(Z)-ylidene]-4-oxo-2-thioxo-thiazolidin-3-yl}-propionamide], for which the IC50 in assay [1] was 97 µM; in assay [2] it was 93 µM.

As to `O=C(CCN1C(=O)/C(=C/c2cccs2)SC1=S)Nc1ccc(O)c(C(=O)O)c1` [2-Hydroxy-5-(3-{4-oxo-5-[1-thiophen-2-yl-meth-(Z)-ylidene]-2-thioxo-thiazolidin-3-yl}-propionylamino)-benzoic acid], the IC50 in assay [1] and in assay [2] was 38 µM throughout.

Consider `COc1ccc(/C=C2\SC(=S)N(CCC(=O)Nc3cccc(C(=O)O)c3)C2=O)cc1`, for which the 50% inhibitory concentration (IC50) in assay [1] and in assay [2] was over 100 µM throughout.

On to `COc1ccccc1/C=C1/SC(=S)N(CCC(=O)Nc2ccc(O)cc2)C1=O` [N-(4-Hydroxy-phenyl)-3-{5-[1-(2-methoxy-phenyl)-meth-(E)-ylidene]-4-oxo-2-thioxo-thiazolidin-3-yl}-propionamide], for which the IC50 came to 99 µM in assay [1] and 100 µM in assay [2].

Regarding `O=C(CN1C(=O)/C(=C/c2ccccc2Cl)SC1=S)Nc1cc([N+](=O)[O-])ccc1O` [2-{5-[1-(2-Chloro-phenyl)-meth-(Z)-ylidene]-4-oxo-2-thioxo-thiazolidin-3-yl}-N-(2-hydroxy-5-nitro-phenyl)-acetamide], the IC50 was found to be 20 µM in assay [1] and 18 µM in assay [2].

Regarding `O=C(CN1C(=O)/C(=C/c2ccccc2Cl)SC1=S)Nc1ccc([N+](=O)[O-])cc1O` [2-{5-[1-(2-Chloro-phenyl)-meth-(Z)-ylidene]-4-oxo-2-thioxo-thiazolidin-3-yl}-N-(2-hydroxy-4-nitro-phenyl)-acetamide], the IC50 in assay [1] and in assay [2] was over 100 µM in each case.

As for `Cc1ccc(/C=C2\SC(=S)N(CCC(=O)Nc3ccc(S(=O)(=O)Nc4nccs4)cc3)C2=O)cc1` [3-{4-Oxo-2-thioxo-5-[1-p-tolyl-meth-(Z)-ylidene]-thiazolidin-3-yl}-N-[4-(thiazol-2-ylsulfamoyl)-phenyl]-propionamide], the figures for the IC50 in assay [1] and in assay [2] were 83 µM and 44 µM, respectively.

With `Cc1ccc(/C=C2\SC(=S)N(CCC(=O)Nc3cccc(C(=O)O)c3)C2=O)cc1` [3-(3-{4-Oxo-2-thioxo-5-[1-p-tolyl-meth-(Z)-ylidene]-thiazolidin-3-yl}-propionylamino)-benzoic acid], the IC50 was 100 µM in assay [1] and over 100 µM in assay [2].

With `O=C(CCCN1C(=O)/C(=C\c2cccs2)SC1=S)Nc1ccc(O)c(C(=O)O)c1` [2-Hydroxy-5-(4-{4-oxo-5-[1-thiophen-2-yl-meth-(Z)-ylidene]-2-thioxo-thiazolidin-3-yl}-butyrylamino)-benzoic acid], the IC50 in assay [1] is 44 µM; in assay [2], 35 µM.

As for `CCOC(=O)N1CCN(C(=O)CCN2C(=O)/C(=C/c3ccc(OC)c(OC)c3)SC2=S)CC1` [4-(3-{5-[1-(3,4-Dimethoxy-phenyl)-meth-(Z)-ylidene]-4-oxo-2-thioxo-thiazolidin-3-yl}-propionyl)-piperazine-1-carboxylic acid ethyl ester], the IC50 in assay [1] and in assay [2] was over 100 µM each time.

For the molecule `COc1cc(C(=O)Nc2ccc(O)c(C(=O)O)c2)cc(OC)c1OC` [2-Hydroxy-5-(3,4,5-trimethoxy-benzoylamino)-benzoic acid], the IC50 in assay [1] and in assay [2] was over 100 µM each time.

As to `O=C(NC(=S)Nc1ccc(O)c(C(=O)O)c1)c1ccccc1` [5-(3-Benzoyl-thioureido)-2-hydroxy-benzoic acid], the IC50 in assay [1] and in assay [2] was over 100 µM in each case.

On to `Cc1ccc(/C=C2/SC(=S)N(CC(=O)Nc3cccc(C(=O)O)c3)C2=O)cc1` [3-(2-{4-Oxo-2-thioxo-5-[1-p-tolyl-meth-(Z)-ylidene]-thiazolidin-3-yl}-acetylamino)-benzoic acid], for which the 50% inhibitory concentration (IC50) in assay [1] was 98 µM; in assay [2], over 100 µM.

Source of the values: BindingDB's records for doi:10.1021/jm0496077 (University of Southern California, 2005).
